Reference: PMC11079024, “Identification of a family of species-selective complex I inhibitors as potential anthelmintics” (Nature Communications, 2024)
Several values for one entry are separate records, joined by “and”; a condition that tells them apart may be missing. Equal entries are not always repeated. Where two headings read alike, the source gives them in different places.

Target: P. pacificus complex I (Pristionchus pacificus, UniProt A0A454XZ18+A0A8R1Z3U8+A4UAP3)
Test: In vitro complex I activity assay, P. pacificus mitochondria
Type: biochemical
Protocol: Mitochondria were isolated from the following free-living nematode strains: C. elegans—N2, CB3474, ECA882, ECA917, ECA1075, ECA1080; C. briggsae—AF16; P. pacificus—PS312; and P. hermaphrodita—B178. With the exception of the P. hermaphrodita strain B178, adult worms of each strain were grown in bulk through liquid culture to obtain mitochondria in sufficient quantities. Due to poor growth in liquid media, mixed stage populations of P. hermaphrodita were washed off and collected from NGM plates seeded with OP50. The isolation of mitochondria from all free-living nematode strains followed the protocol previously outlined in Burns et al.[24]. In brief, a 1 L saturated culture of E. coli HB101 was concentrated 20-fold in 50 mL complete S-medium. ~500,000 L1 worms synchronized from an embryo preparation performed the day prior were added to the S-media/HB101 suspension and grown to adulthood over the course of 3.5 days at 20 °C with shaking at 165 rpm. Following growth, worms were collected in 10 ×15 mL conical tubes and washed 7 times in M9 buffer. Worm suspensions were then combined into a single 15 mL conical tube and diluted to a final volume of 15 mL with M9 buffer. 1 mL aliquots of worm suspension were then distributed to 15 × 1.5 mL screw-cap microcentrifuge tubes and were pelleted at 500 g for 1 min. Excess M9 was aspirated without disturbing the worm pellet. 600 μL ice-cold isolate buffer A (250 mM sucrose, 10 mM Tris (pH 7.5), 1 mM EDTA, 1 mM PMSF (freshly prepared)) and 300 μL cold glass beads were then added to each tube. Tubes were incubated on ice for 10 min, and the worms were then lysed by bead beating (6 x 30 s, with 1 min cooling intervals). Tubes containing worm lysate were centrifuged at 1,000 g for 10 min at 4 °C and the supernatant was transferred to 15 new microcentrifuge tubes on ice. The tubes were centrifuged a second time at 1,000 g for 10 min at 4 °C and the supernatant was once again transferred to 15 new microcentrifuge tubes on ice. These tubes were then centrifuged at 16,000 g for 10 min at 4 °C. The resulting mitochondrial pellet was washed twice by re-suspension in 300 μL of ice-cold isolate buffer B (250 mM sucrose, 10 mM Tris (pH 7.5), 1 mM EDTA). Following the final wash, isolation buffer was aspirated from each tube and the pellets were flash-frozen in ethanol/dry ice and stored at −80 °C until needed.
The enzymatic activities of individual ETC complexes (I-IV) were assessed spectrophotometrically in isolated mitochondria using a Varioskan LUX Multimode plate reader (ThermoFisher Scientific). Mitochondrial pellets previously isolated were thawed on ice and resuspended in ice-cold isolation buffer (250 mM sucrose, 10 mM Tris (pH 7.5), 1 mM EDTA). The BCA assay (Walker, 1994) was used to quantify the protein concentration of mitochondria suspensions; solutions were diluted to a concentration of 0.2 mg/mL for use in all assays. For the complex I assay, mitochondria pellets were freeze-thawed on ice three times to increase enzyme accessibility. […] 20 μL mitochondria suspension was then added/mixed with a pipette to initiate the reaction. Immediately following the addition of mitochondria, absorbance was measured (complex I and II: 600 nm; complex III and IV: 550 nm) in 30 s intervals over 15 min. Enzymatic activity was determined in each reaction by plotting absorbance versus time and calculating the slope of the curve during the initial linear phase of the reaction. […] Percent activity of each complex was calculated by dividing the enzyme-specific activity of each well by the enzyme-specific activity of the corresponding solvent controls.
Chemical solutions were prepared in complex I assay buffer composed of 25 mM KPi buffer (pH 7.5), 3 mg/mL bovine serum albumin (BSA), 80 μM NADH, 60 μM decylubiquinone, 160 μM DCIP, 2 μM antimycin A and 2 mM KCN. […]

Cc1nc2ccccc2n1Cc1ccc(Cl)cc1 [STK697993] was tested, and the remaining activity at 0.0001 µM (P. pacificus mitochondria, 0.0001 µM, Mean, read-out: in vitro complex I activity relative to solvent control) was 94.6%, the “in vitro complex I activity relative to solvent control” value (P. pacificus mitochondria, 0.0001 µM, single replicate) was 101.484% and 94.523% and the remaining activity at 0.0001 µM (P. pacificus mitochondria, 0.0001 µM, single replicate, read-out: in vitro complex I activity relative to solvent control) was 87.6%. The remaining activity at 0.0005 µM (P. pacificus mitochondria, 0.0005 µM, Mean, read-out: in vitro complex I activity relative to solvent control) was 77.4%, the “in vitro complex I activity relative to solvent control” value (P. pacificus mitochondria, 0.0005 µM, single replicate) was 88.361% and 49.299% and the remaining activity at 0.001 µM (P. pacificus mitochondria, 0.001 µM, Mean, read-out: in vitro complex I activity relative to solvent control) was 107%. The “in vitro complex I activity relative to solvent control” value (P. pacificus mitochondria, 0.001 µM, single replicate) was 104.362% and 121.410% and 94.602%, the remaining activity at 0.0025 µM (P. pacificus mitochondria, 0.0025 µM, Mean, read-out: in vitro complex I activity relative to solvent control) was 102% and the “in vitro complex I activity relative to solvent control” value (P. pacificus mitochondria, 0.0025 µM, single replicate) was 89.591% and 126.458% and 89.566%. The remaining activity at 0.005 µM (P. pacificus mitochondria, 0.005 µM, Mean, read-out: in vitro complex I activity relative to solvent control) was 96.6%, the “in vitro complex I activity relative to solvent control” value (P. pacificus mitochondria, 0.005 µM, single replicate) was 89.435% and 110.953% and 89.424% and the remaining activity at 0.013 µM (P. pacificus mitochondria, 0.013 µM, Mean, read-out: in vitro complex I activity relative to solvent control) was 82.8%. For the same compound, the “in vitro complex I activity relative to solvent control” value (P. pacificus mitochondria, 0.013 µM, single replicate) was 85.370% and 80.753%, the remaining activity at 0.013 µM (P. pacificus mitochondria, 0.013 µM, single replicate, read-out: in vitro complex I activity relative to solvent control) was 82.3% and the remaining activity at 0.025 µM (P. pacificus mitochondria, 0.025 µM, Mean, read-out: in vitro complex I activity relative to solvent control) was 81.8%. The “in vitro complex I activity relative to solvent control” value (P. pacificus mitochondria, 0.025 µM, single replicate) was 78.182% and 98.911% and 68.184%, the remaining activity at 0.063 µM (P. pacificus mitochondria, 0.063 µM, Mean, read-out: in vitro complex I activity relative to solvent control) was 55.6% and the “in vitro complex I activity relative to solvent control” value (P. pacificus mitochondria, 0.063 µM, single replicate) was 59.066% and 53.138%. For the same compound, the remaining activity at 0.063 µM (P. pacificus mitochondria, 0.063 µM, single replicate, read-out: in vitro complex I activity relative to solvent control) was 54.5%, the remaining activity at 0.125 µM (P. pacificus mitochondria, 0.125 µM, Mean, read-out: in vitro complex I activity relative to solvent control) was 36.1% and the “in vitro complex I activity relative to solvent control” value (P. pacificus mitochondria, 0.125 µM, single replicate) was 35.771% and 33.806%. For the same compound, the remaining activity at 0.125 µM (P. pacificus mitochondria, 0.125 µM, single replicate, read-out: in vitro complex I activity relative to solvent control) was 38.7%, the remaining activity at 0.313 µM (P. pacificus mitochondria, 0.313 µM, Mean, read-out: in vitro complex I activity relative to solvent control) was 20.5% and the “in vitro complex I activity relative to solvent control” value (P. pacificus mitochondria, 0.313 µM, single replicate) was 25.713% and 19.065%. The remaining activity at 0.313 µM (P. pacificus mitochondria, 0.313 µM, single replicate, read-out: in vitro complex I activity relative to solvent control) was 16.8%, the remaining activity at 0.625 µM (P. pacificus mitochondria, 0.625 µM, Mean, read-out: in vitro complex I activity relative to solvent control) was 17.3% and the “in vitro complex I activity relative to solvent control” value (P. pacificus mitochondria, 0.625 µM, single replicate) was 22.397% and 7.371% and 22.004%. The remaining activity at 1.5 µM (P. pacificus mitochondria, 1.5 µM, Mean, read-out: in vitro complex I activity relative to solvent control) was 18.5%, the “in vitro complex I activity relative to solvent control” value (P. pacificus mitochondria, 1.5 µM, single replicate) was 23.927% and 2.400% and 29.263% and the remaining activity at 3 µM (P. pacificus mitochondria, 3 µM, Mean, read-out: in vitro complex I activity relative to solvent control) was 15.2%. For the same compound, the “in vitro complex I activity relative to solvent control” value (P. pacificus mitochondria, 3 µM, single replicate) was 21.335% and 0.000% and 24.340%, the remaining activity at 15 µM (P. pacificus mitochondria, 15 µM, Mean, read-out: in vitro complex I activity relative to solvent control) was 7.59% and the “in vitro complex I activity relative to solvent control” value (P. pacificus mitochondria, 15 µM, single replicate) was 11.369% and 0.506% and 10.901%. The remaining activity at 37.5 µM (P. pacificus mitochondria, 37.5 µM, Mean, read-out: in vitro complex I activity relative to solvent control) was 7.5%, the “in vitro complex I activity relative to solvent control” value (P. pacificus mitochondria, 37.5 µM, single replicate) was 6.933% and 4.878% and 10.703% and the remaining activity at 75 µM (P. pacificus mitochondria, 75 µM, Mean, read-out: in vitro complex I activity relative to solvent control) was 4.35%. For the same compound, the “in vitro complex I activity relative to solvent control” value (P. pacificus mitochondria, 75 µM, single replicate) was 3.580% and 5.152%, the remaining activity at 75 µM (P. pacificus mitochondria, 75 µM, single replicate, read-out: in vitro complex I activity relative to solvent control) was 4.33% and the IC50 (purified mitochondria) was 0.07 µM.
